# Experimental data as given in patent US11434219B2, “Purification of cannabinoids from crude cannabis oil” (TABA IP, LLC, priority 2018, dated 2022).
# Test: Solvent survey: solubility of THCA in solvents
# Format: physicochemical
# Procedure: Crystallization of THCA solvent survey study is carried out according the general procedure described above at 0° C. using crystalline THCA standard (rather than cannabis oil). The solubility (g/mL) provided an indication of loading capacities: higher loading capacities are desirable to make the process more efficient. The theoretical yield of THCA is determined based on the purity of the standard, which was 97.4%.
smiles,measurement,setting,value
"CCCCCc1cc2c(c(O)c1C(=O)O)[C@@H]1C=C(C)CC[C@H]1C(C)(C)O2 [THCA, tetrahydrocannabinolic acid]",Solubility (g/mL) 22.8° C.,solvent 1-Butanol,0.151 g/mL
same,Solubility (g/mL) 30° C.,solvent 1-Butanol,0.258 g/mL
same,Solubility (g/mL) 40° C.,solvent 1-Butanol,0.514 g/mL
same,Solubility (g/mL) 22.8° C.,solvent Acetone,0.818 g/mL
same,Solubility (g/mL) 30° C.,solvent Acetone,1.063 g/mL
same,Solubility (g/mL) 40° C.,solvent Acetone,1.440 g/mL
same,Solubility (g/mL) 22.8° C.,solvent Acetonitrile,0.562 g/mL
same,Solubility (g/mL) 30° C.,solvent Acetonitrile,0.953 g/mL
same,Solubility (g/mL) 40° C.,solvent Acetonitrile,1.230 g/mL
same,Solubility (g/mL) 22.8° C.,solvent DMA,0.498 g/mL
same,Solubility (g/mL) 30° C.,solvent DMA,0.650 g/mL
same,Solubility (g/mL) 40° C.,solvent DMA,0.892 g/mL
same,Solubility (g/mL) 22.8° C.,solvent DMF,0.612 g/mL
same,Solubility (g/mL) 30° C.,solvent DMF,0.929 g/mL
same,Solubility (g/mL) 40° C.,solvent DMF,1.171 g/mL
same,Solubility (g/mL) 22.8° C.,solvent Ethyl Acetate,0.555 g/mL
same,Solubility (g/mL) 30° C.,solvent Ethyl Acetate,0.931 g/mL
same,Solubility (g/mL) 40° C.,solvent Ethyl Acetate,1.216 g/mL
same,Solubility (g/mL) 22.8° C.,solvent Heptane,0.092 g/mL
same,Solubility (g/mL) 30° C.,solvent Heptane,0.155 g/mL
same,Solubility (g/mL) 40° C.,solvent Heptane,0.258 g/mL
same,Solubility (g/mL) 22.8° C.,solvent THF,0.743 g/mL
same,Solubility (g/mL) 30° C.,solvent THF,1.057 g/mL
same,Solubility (g/mL) 40° C.,solvent THF,1.324 g/mL
same,Solubility (g/mL) 22.8° C.,solvent n-Propanol,0.140 g/mL
same,Solubility (g/mL) 30° C.,solvent n-Propanol,0.360 g/mL
same,Solubility (g/mL) 40° C.,solvent n-Propanol,0.585 g/mL
